Where “and” joins values, the source holds several entries; their conditions need not be identical. Identical values can stand only once. Like-named read-outs stand apart in the source and are kept apart here. *1 amine or outer side, *2 acyl side, *3 side chain or, on linkers, in order; H or OH if unused. Where a SMILES comes first, the peptide text is derived from it. Bridges are numbered along the chain shown (N, C = ends). Where no end group is shown, it is not given here. [ ]: non-standard residue; d: D form. ξ: configuration not given here. X3 = CN(C)c1ccc2c(c1)Oc1cc(N(C)C)ccc1C2=C1C=CC(=NC(=S)NC[C@](C)(O)C[C@H](N[*:1])C(=O)[*:2])C=C1C(=O)O; X2 = CCCCCCCC/C=C\CCCCCCCC(=O)OC[C@](C)(O)C[C@H](N[*:1])C(=O)[*:2]; Trp(2-yl) = O=C([C@H](Cc1c([*:3])[nH]c2ccccc12)N[*:1])[*:2]; ξTrp(2-yl) = O=C(C(Cc1c([*:3])[nH]c2ccccc12)N[*:1])[*:2]; X1 = CC(O)(CO)CC(N[*:1])C(=O)[*:2]; cisHyp = O=C(O)[C@@H]1C[C@H](O)CN1; ξAsp(3ξ-OH) = NC(C(=O)O)C(O)C(=O)O; Hyp = O=C(O)[CH]1C[CH](O)CN1
How the values were obtained:
HeLa cells [1] = assay type: cell-based, human; settings: for antiproliferative effect at either pH: pH 6
[2] = pH 5.5
actin filaments = settings: read-out: Kd, binding to actin filaments; cited from earlier work
[3] = not given; remark: listed apart in the source
tumor = test: Animal studies of variants: tumor/organ fluorescence 4 and 24 h post-injection; settings: after 24 hours
[4] = Stopped-flow fluorescence and CD kinetics of insertion/folding and exit/unfolding; assay type: physicochemical
tumors = tested on: tumors; set-up: species or system nude mice; settings: mouse, in vivo
HeLa cells [5] = tested on: HeLa cells
HeLa-GFP cells = test: Cellular uptake of nanogold (silver enhancement, image analysis); assay type: cell-based, human; settings: 1 h
HeLa tumors = settings: mouse, in vivo
[6] = tested on: luciferase pre-mRNA aberrant splice sites in HeLa cells; assay type: cell-based, human

## CC[C@H](C)[C@H](NC(=O)[C@@H]1CCCN1C(=O)[C@H](CC(N)=O)NC(=O)[C@H](CCC(N)=O)NC(=O)[C@H](CCC(=O)O)NC(=O)[C@H](C)NC(=O)[C@H](C)N)C(=O)N[C@@H](Cc1ccc(O)cc1)C(=O)N[C@@H](Cc1c[nH]c2ccccc12)C(=O)N[C@@H](C)C(=O)N[C@@H](CCCNC(=N)N)C(=O)N[C@@H](Cc1ccc(O)cc1)C(=O)N[C@@H](C)C(=O)N[C@@H](CCC(=O)O)C(=O)N[C@@H](Cc1c[nH]c2ccccc12)C(=O)N[C@@H](CC(C)C)C(=O)N[C@@H](Cc1ccccc1)C(=O)N[C@H](C(=O)N[C@H](C(=O)N1CCC[C@H]1C(=O)N[C@@H](CC(C)C)C(=O)N[C@@H](CC(C)C)C(=O)N[C@@H](CC(C)C)C(=O)N[C@@H](CC(C)C)C(=O)N[C@@H](CC(=O)O)C(=O)N[C@@H](CC(C)C)C(=O)N[C@@H](C)C(=O)N[C@@H](CC(C)C)C(=O)N[C@@H](CC(C)C)C(=O)N[C@H](C(=O)N[C@@H](CC(=O)O)C(=O)N[C@@H](C)C(=O)N[C@@H](CC(=O)O)C(=O)N[C@@H](CCC(=O)O)C(=O)NCC(=O)N[C@H](C(=O)N[C@@H](CS)C(=O)NCC(=O)O)[C@@H](C)O)C(C)C)[C@@H](C)O)[C@@H](C)O [D14E]
other
  pH 8 Solubility: Y

## CC[C@H](C)[C@H](NC(=O)[C@@H]1CCCN1C(=O)[C@H](CC(N)=O)NC(=O)[C@H](CCC(N)=O)NC(=O)[C@H](CCC(=O)O)NC(=O)[C@H](C)NC(=O)[C@H](C)N)C(=O)N[C@@H](Cc1ccc(O)cc1)C(=O)N[C@@H](Cc1c[nH]c2ccccc12)C(=O)N[C@@H](C)C(=O)N[C@@H](CCCNC(=N)N)C(=O)N[C@@H](Cc1ccc(O)cc1)C(=O)N[C@@H](C)C(=O)N[C@@H](CC(=O)O)C(=O)N[C@@H](Cc1c[nH]c2ccccc12)C(=O)N[C@@H](CC(C)C)C(=O)N[C@@H](Cc1ccccc1)C(=O)N[C@H](C(=O)N[C@H](C(=O)N1CCC[C@H]1C(=O)N[C@@H](CC(C)C)C(=O)N[C@@H](CC(C)C)C(=O)N[C@@H](CC(C)C)C(=O)N[C@@H](CC(C)C)C(=O)N[C@@H](C)C(=O)N[C@@H](CC(C)C)C(=O)N[C@@H](C)C(=O)N[C@@H](CC(C)C)C(=O)N[C@@H](CC(C)C)C(=O)N[C@H](C(=O)N[C@@H](CC(=O)O)C(=O)N[C@@H](C)C(=O)N[C@@H](CC(=O)O)C(=O)N[C@@H](CCC(=O)O)C(=O)NCC(=O)N[C@H](C(=O)N[C@@H](CS)C(=O)NCC(=O)O)[C@@H](C)O)C(C)C)[C@@H](C)O)[C@@H](C)O [D25A]
other
  pH 8 Solubility: N

## CC1NC(=O)C2CC(O)CN2C(=O)C2CSc3[nH]c4ccccc4c3CC(NC1=O)C(=O)NC(CC(C)(O)CO)C(=O)NC(C(C)C)C(=O)NC(C(O)C(=O)O)C(=O)N2 (stereo not drawn) [phallacidin, reference compound] (cyclo([ξAsp(3ξ-OH)]C[Hyp]A[ξTrp(2-yl)][X1]V); thioether 2-5; configuration not given here)
HeLa cells [1]
  antiproliferative effect at either pH: does not demonstrate an antiproliferative effect at either pH
[2]
  Log P (octanol-water partition coefficient): −1.6

## C[C@@H]1NC(=O)[C@H](C[C@@](C)(O)CNC(=S)N=C2C=CC(=C3c4ccc(N(C)C)cc4Oc4cc(N(C)C)ccc43)C(C(=O)O)=C2)NC(=O)[C@@H]2Cc3c([nH]c4ccccc34)SC[C@H](NC(=O)[C@@H]([C@H](C)O)NC1=O)C(=O)N1C[C@@H](O)C[C@H]1C(=O)N[C@@H](C)C(=O)N2 [phalloidin-TRITC] (cyclo(A[dT]C[cisHyp]A[Trp(2-yl)][X3]); thioether 3-6)
Actin filaments
  Kd: 40 nM

## CCCCCCCC/C=C\CCCCCCCC(=O)OC[C@](C)(O)C[C@@H]1NC(=O)[C@@H]2Cc3c([nH]c4ccccc34)SC[C@H](NC(=O)[C@@H]([C@H](C)O)NC(=O)[C@H](C)NC1=O)C(=O)N1C[C@@H](O)C[C@H]1C(=O)N[C@@H](C)C(=O)N2 [phalloidin-oleate] (cyclo(A[dT]C[cisHyp]A[Trp(2-yl)][X2]); thioether 3-6)
HeLa cells [1]; 1 µM
  inhibition of Hela cell proliferation rate: 60%
HeLa cells [1]; 2 µM
  inhibition of Hela cell proliferation rate: 70%
HeLa cells [1]; 4 µM
  inhibition of Hela cell proliferation rate: 95%
[2]
  Log P: +1.7

## AAEQNPIYWARYADWLFTTALLLLDLALLVDADEGT [P20A]
[3]; pH 8
  Findings: solubility / aggregation: Aggregates

## AAEQNPIYWARYADWLFTTPLLLLDLALLVDADEGTCG [WT-Cys1]
physchem
  pKa: 6.14

## AAEQNPIYWARYAEWLFTTPLLLLELALLVDADEGTCG [D14/25E]
other
  pH 8 Solubility: N

## ACDDQNPWRAYLDLLFPTDTLLLDLLW [Var3-3D]
tumor
  retention in kidney: also retained in the kidney after 24 hours

## ACEEQNPWARYLEWLFPTETLLLEL [Cys-Short-3E]
tumor
  retention in kidney: also retained in the kidney after 24 hours

## ACEQNPIYWARYAKWLFTTPLLLLKLALLVDADEGTG [K-pHLIP]
other
  pH 8 Solubility: Y/N

## ACEQNPIYWARYANWLFTTPLLLLNLALLVDADEGTG [N-pHLIP]
other
  pH 8 Solubility: Y

## AEDQNDPI YWARYADWLFTTPLLLLELALLV EC--G-T-COOH [pHLIP-2E]
[4]; pH 8
  A, frequency factor, first transition: 1.2 × 10^5
  Ea, first transition: 6.0 kcal/mol
  k1, rate constant: 0.20/5.00 s^−1 and 0.28/3.57 s^−1 and 0.34/2.94 s^−1 and 0.39/2.56 s^−1
  t1, characteristic time: 0.20/5.00 s and 0.28/3.57 s and 0.34/2.94 s and 0.39/2.56 s
[3]
  λmax, maximum position of fluorescence spectrum: 339.2 nm
[3]; pH 8
  λmax, maximum position of fluorescence spectrum: 351.2 nm and 341.3 nm

## AEDQNPYWARYADWLFTTPLLLLDLALLVDCG [Fast1-Cys]
physchem
  pKa: 6.1

## AEQNPI YFARYADELFTTPLLLLDLALLW DADET-COOH [pHLIP-W3]
[4]; pH 3.6
  characteristic time, first component, exit: 0.06 s (14.9 s^−1)
  characteristic time, second component, exit: 0.35 s (2.88 s^−1)
  rate constant, first component, exit: 0.06 s (14.9 s^−1)
  rate constant, second component, exit: 0.35 s (2.88 s^−1)

## AEQNPIYWARYADWLFTTPL [Short-Cys]
physchem
  pKa: 4.4

## Ac-AAEQNPIYWARYADWLFTTPLLLLDLALLVDADEGTKCG [pHLIP-KC]
other
  pH 8 Solubility: Y
physchem
  pKa: 6.16

## DDDEDNPIYWARYADWLFTTPLLLLHGALLVDADECT [2H3 or D3a]
other
  pH 8 Solubility: Y

## DDDEDNPIYWARYAHWLFTTPLLLLDGALLVDADECT [D3b]
other
  pH 8 Solubility: Y

## DDDEDNPIYWARYAHWLFTTPLLLLHGALLVDADECT [2H2 or D2]
other
  pH 8 Solubility: Y

## DDDEDNPIYWARYAHWLFTTPLLLLHGALLVNADECT [D1]
other
  pH 8 Solubility: Y

## DDDEDNPIYWARYAHWLFTTPLLLLHGALLVNANECT [D0 or H2N2]
other
  pH 8 Solubility: Y

## DDDEDNPIYWARYAHWLFTTPLLLLHGALLVNANECT [D0]
other
  pH 8 Solubility: Y

## GGEQNPIYWAQDYAWLFTTPLLLLDLALLVDADEGTCG [R11Q; D14UpUp]
other
  pH 8 Solubility: Y

## GGEQNPIYWAQYDAWLFTTPLLLLDLALLVDADEGTCG [R11Q; D14Up]
other
  pH 8 Solubility: Y

## GGEQNPIYWARYADWLFTTPLLLDLLALLVDADEGTCG [D25Up]
other
  pH 8 Solubility: N

## GGEQNPIYWARYADWLFTTPLLLLDLALLVDADEGT [WT-1]
physchem
  pKa: 6

## GGEQNPIYWARYADWLFTTPLLLLDLALLVDADEGTCG [WT-Cys3]
other
  pH 8 Solubility: Y

## GGEQNPIYWARYADWLFTTPLLLLDLALLVNANQGT [NNQ]
other
  pH 8 Solubility: Y

## GGEQNPIYWARYADWLFTTPLLLLLDALLVDADEGTCG [D25Down]
other
  pH 8 Solubility: N

## GGEQNPIYWARYDAWLFTTPLLLLDLALLVDADEGTCG [D14Up]
other
  pH 8 Solubility: Y

## Gadolinium-tetraazacyclododecanetetraacetic acid [Gd-DOTA control]
tumors
  % T1 Change (3 hrs): 5.27% and −3.05%
  % T1 Change (24 hrs): 10.7% and 5.02%
  T1 3 hrs: 920.4 ms and 879.2 ms
  T1 24 hrs: 967.6 ms and 952.4 ms

## Phallacidin-(CH2)n—SH, n=4 [phallC4SH]
[2]
  Log P (octanol-water partition coefficient): −0.74

## Phallacidin-(CH2)n—SH, n=6 [phallC6SH]
HeLa cells [1]
  antiproliferative effect at either pH: does not demonstrate an antiproliferative effect at either pH

## Phallacidin-(CH2)n—SH, n=10 [phallC10SH]
[2]
  Log P (octanol-water partition coefficient): +1.28

## aminophalloidin [reference compound]
HeLa cells [5]
  inhibitory effect on HeLa proliferation: no inhibitory effect
M4A4 cells
  inhibitory effect on M4A4 proliferation: no inhibitory effect

## gold-pHLIP: 1.4 nm monomaleimido Nanogold conjugated to N-terminal Cys of pHLIP (ACEQNPIYWARYADWLFTTPLLLLDLALLVDADET) (AC(1.4 nm monomaleimido Nanogold)EQNPIYWARYADWLFTTPLLLLDLALLVDADET)
HeLa-GFP cells; 2 μM
  cellular uptake at pH6.5 versus pH7.4 (times higher): 1.6
HeLa-GFP cells; pH6.5, 2 μM
  uptake of gold versus unmodified gold nanoparticles (times): 6.4
HeLa-GFP cells; pH7.4, 2 μM
  uptake of gold versus unmodified gold nanoparticles (times): 3
HeLa tumors
  tumor/muscle ratio: 5.6
HeLa tumors; iv
  gold in tumor versus gold nanoparticles alone (times): 6

## pHLIP-S—S-CCTCTTACCTCAGTTACA (all peptide nucleic acid (PNA); pHLIP peptide disulfide-linked to the PNA, end not given here) [pHLIP-PNA construct]
[6]
  luciferase activity localized to tumor sites: significantly higher luciferase activity
  uptake by cells in vivo compared to other constructs: Significantly greater amounts

## pHLIP-S—S—(CH2)6-phallacidin [pHLIP-C6phall]
HeLa cells [1]
  cell death: about 60%
HeLa cells [1]; pH 7.4
  antiproliferative effect at neutral pH: no effect is observed

## phallacidin-(CH2)10NH2 [phallC10]
[2]
  Log P (octanol-water partition coefficient): +1.28

Source: patent US20160256560A1, “Environmentally Sensitive Compositions” (priority 2010, published 2016)
